What was measured:
Setaria [1] = experiment: Herbicidal pre-emergence action, greenhouse; format: in vivo; details: 1000 g a.i./ha, visual assessment after 2 to 3 weeks, 100% = plants have died
Excerpt: (§1) 1. Herbicidal Pre-emergence Action Seeds of monocotyledonous and dicotyledonous weed and crop plants are placed into sandy loam and covered with soil. The test compounds, formulated in the form of emulsion concentrates (EC), are, in various dosages with a water application rate of 800 l/ha (converted), with wetting agent added, applied to the surface of the covering soil. After the treatment, the pots are placed in a greenhouse and kept under good growth conditions for the test plants. The visual assessment of the emergence damage on the test plants is carried out after a trial period of 2 to 3 weeks by comparison with untreated controls (herbicidal effect in percent (%): 100% effect=the plants have died, 0% effect=like control plants).

Lolium [2] = experiment: Herbicidal pre-emergence action, greenhouse; format: in vivo; details: 1000 g a.i./ha, visual assessment after 2 to 3 weeks, 100% = plants have died
Excerpt: as §1

[3] = system: green peach aphid (Myzus persicae); experiment: Myzus test (spray treatment); format: in vivo; details: 100 g/ha, spray treatment of Chinese cabbage discs
Procedure: Myzus Test—(Spray Treatment) Solvents: 78 parts by weight of acetone 1.5 parts by weight of dimethylformamide Emulsifier: 0.5 part by weight of alkylaryl polyglycol ether To produce a suitable preparation of active compound, 1 part by weight of active compound is mixed with the stated amount of solvents and the stated amount of emulsifier, and the concentrate is diluted with emulsifier-containing water to the desired concentration. Discs of Chinese cabbage (Brassica pekinensis) which are infested by all stages of the green peach aphid (Myzus persicae) are sprayed with a preparation of active compound of the desired concentration. After the desired period of time, the effect in % is determined. 100% means that all aphids have been killed; 0% means that none of the aphids have been killed.

Echinoclora = experiment: Herbicidal post-emergence action, greenhouse; format: in vivo; details: 1000 g a.i./ha, rated visually after 2 weeks, 100% = plants have died
Procedure: (§2) 2. Herbicidal Post-emergence Action Seeds of monocotyledonous and dicotyledonous weed and crop plants are placed into sandy loam, covered with soil and cultivated in a greenhouse under good growth conditions. About 2 weeks after sowing, the test plants are treated at the one-leaf stage. The test compounds, formulated as emulsion concentrates (EC), are, in various dosages with a water application rate of 800 l/ha (converted), with wetting agents added, sprayed onto the green parts of the plants. After the test plants have, been kept in the greenhouse under optimum growth conditions for 2 weeks, the effect of the preparations is rated visually in comparison to untreated controls (herbicidal effect in percent (%): 100% effect=the plants have died, 0% effect=like control plants).

Setaria [4] = experiment: Herbicidal post-emergence action, greenhouse; format: in vivo; details: 1000 g a.i./ha, rated visually after 2 weeks, 100% = plants have died
Procedure: as §2

Lolium [5] = experiment: Herbicidal post-emergence action, greenhouse; format: in vivo; details: 1000 g a.i./ha, rated visually after 2 weeks, 100% = plants have died
Procedure: as §2

SMILES | melting point | herbicidal effect in percent, Setaria (Setaria [1]) | herbicidal effect in percent, Lolium (Lolium [2]) | Kill rate in % after 5 d [3] | herbicidal effect in percent, Echinoclora (Echinoclora) | herbicidal effect in percent, Setaria (Setaria [4]) | herbicidal effect in percent, Lolium (Lolium [5])
Cc1scnc1-c1c(O)n2n(c1=O)CCCC2 (single isomer, unassigned) [Example I-3-b-2] | 86 °C | – | – | – | – | – | –
CCCc1cc(-c2ccc(Cl)cc2)nn1-c1c(O)n2n(c1=O)CCCC2 [Example I-3-a-1] | – | 100% | 100% | 100% | 100% | 100% | 90%
Cc1scnc1-c1c(O)n2n(c1=O)CCCC2 (single isomer, unassigned) [Example I-3-b-3] | 182 °C | – | – | – | – | – | –

Source: patent US7420062B2, “Hetaryl-substituted pyrazolidindione derivatives with pesticidal characteristics” (Bayer CropScience, AG, priority 2003, dated 2008)
